Assay results as given in ChEMBL document CHEMBL1201862, “PubChem BioAssay data set” (2004).
Activity calls are given as the source filed them.

How the values were obtained:
[1] = target: Cytochrome P450 2D6 (Homo sapiens, UniProt P10635);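 further: CYP2D6 member of a cytochrome P450 panel assay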
[2] = system: HeLa; experiment: ATP-based viability loss in HeLa cells – cell-based, CellTiter-Glo luminescence, cherry-pick samples, cytotoxicity control for MITF activator project, dose response (AID 540259); format: functional; conditions: Homo sapiens
[3] = target: Cytochrome P450 2C19 (Homo sapiens, UniProt P33261); experiment: Cytochrome panel assay with activity outcomes. Panel member name: p450-cyp2c19 Compounds with AC50 equal or less than 10 uM are considered active; format: functional
[4] = target: T1, SUMO-activating enzyme (Homo sapiens, UniProt Q9UBT2); experiment: blockers of SAE1/SAE2–UBC9 SUMO transfer – biochemical, HTRF, uHTS, primary screen (AID 2006); format: protein-complex assay
[5] = target: T1, SUMO-activating enzyme; experiment: blockers of UBC9-mediated SUMO conjugation – biochemical, AlphaScreen, SUMOylation inhibitor project, confirmation (AID 2018); format: functional
[6] = target: T2, Histone-lysine N-methyltransferase NSD2 (Homo sapiens, UniProt O96028); format: biochemical
T2 sequence (O96028 whole entry): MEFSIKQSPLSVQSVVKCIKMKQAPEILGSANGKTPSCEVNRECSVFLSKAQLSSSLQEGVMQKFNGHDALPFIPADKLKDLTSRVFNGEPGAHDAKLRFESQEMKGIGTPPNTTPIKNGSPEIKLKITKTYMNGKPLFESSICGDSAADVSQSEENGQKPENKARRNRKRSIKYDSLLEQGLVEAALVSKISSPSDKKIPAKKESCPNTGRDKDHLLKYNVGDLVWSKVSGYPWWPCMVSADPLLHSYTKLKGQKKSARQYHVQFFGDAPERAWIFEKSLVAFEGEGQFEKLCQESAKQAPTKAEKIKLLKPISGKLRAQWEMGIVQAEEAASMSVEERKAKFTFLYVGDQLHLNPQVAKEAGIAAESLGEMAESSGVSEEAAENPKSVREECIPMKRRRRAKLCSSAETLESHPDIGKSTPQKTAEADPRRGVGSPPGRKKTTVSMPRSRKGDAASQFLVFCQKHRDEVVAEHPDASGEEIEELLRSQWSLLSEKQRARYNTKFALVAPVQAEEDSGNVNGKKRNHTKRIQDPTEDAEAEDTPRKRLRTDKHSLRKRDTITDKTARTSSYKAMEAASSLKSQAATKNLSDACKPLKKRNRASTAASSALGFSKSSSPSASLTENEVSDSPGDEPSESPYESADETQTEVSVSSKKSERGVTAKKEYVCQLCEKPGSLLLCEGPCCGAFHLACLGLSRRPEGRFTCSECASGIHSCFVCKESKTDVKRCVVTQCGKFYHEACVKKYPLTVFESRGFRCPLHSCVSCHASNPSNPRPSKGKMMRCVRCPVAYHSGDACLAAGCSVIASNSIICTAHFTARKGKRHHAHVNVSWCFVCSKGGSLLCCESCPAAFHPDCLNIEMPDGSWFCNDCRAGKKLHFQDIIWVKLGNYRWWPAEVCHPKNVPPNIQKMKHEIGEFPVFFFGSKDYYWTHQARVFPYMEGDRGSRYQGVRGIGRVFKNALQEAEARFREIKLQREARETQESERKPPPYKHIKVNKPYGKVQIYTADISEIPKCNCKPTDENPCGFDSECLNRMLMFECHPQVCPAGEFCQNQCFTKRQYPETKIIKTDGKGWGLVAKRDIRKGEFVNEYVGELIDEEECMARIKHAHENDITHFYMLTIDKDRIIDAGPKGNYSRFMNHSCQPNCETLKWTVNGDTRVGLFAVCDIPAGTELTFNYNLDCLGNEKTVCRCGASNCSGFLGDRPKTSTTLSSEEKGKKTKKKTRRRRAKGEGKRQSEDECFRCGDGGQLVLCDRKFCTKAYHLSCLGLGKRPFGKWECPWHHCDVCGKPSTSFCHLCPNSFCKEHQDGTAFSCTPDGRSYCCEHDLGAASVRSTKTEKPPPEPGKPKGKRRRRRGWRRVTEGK

[7] = target: T3, Alkaline phosphatase, tissue-nonspecific isozyme (Homo sapiens, UniProt P05186); experiment: potency against alkaline phosphatase TNAP – biochemical, luminescent, dose response, SAR follow-up (AID 1056)
T3 sequence (P05186 whole entry): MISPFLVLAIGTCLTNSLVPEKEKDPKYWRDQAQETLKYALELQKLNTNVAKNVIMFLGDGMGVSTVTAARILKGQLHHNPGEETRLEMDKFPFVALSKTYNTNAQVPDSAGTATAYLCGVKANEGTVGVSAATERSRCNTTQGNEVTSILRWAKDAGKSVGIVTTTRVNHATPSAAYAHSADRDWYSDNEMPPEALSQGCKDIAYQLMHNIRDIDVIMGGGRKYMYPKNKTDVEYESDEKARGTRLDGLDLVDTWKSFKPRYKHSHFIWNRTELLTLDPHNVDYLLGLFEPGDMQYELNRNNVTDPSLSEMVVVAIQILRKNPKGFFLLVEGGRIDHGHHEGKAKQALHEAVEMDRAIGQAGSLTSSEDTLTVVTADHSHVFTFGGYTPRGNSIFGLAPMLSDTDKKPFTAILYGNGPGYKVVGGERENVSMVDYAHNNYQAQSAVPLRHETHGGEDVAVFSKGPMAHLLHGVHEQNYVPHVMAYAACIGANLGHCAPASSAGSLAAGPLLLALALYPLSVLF

[8] = target: Alkaline phosphatase, placental type (Homo sapiens, UniProt P05187); experiment: human placental alkaline phosphatase inhibition – biochemical, luminescence, confirmation (AID 1512); format: functional
[9] = cells; format: functional
[10] = Vero E6 cell cytotoxicity, dose response, cytotoxicity control for non-replicating M. tuberculosis project, secondary assay (AID 492998); format: functional, VeroE6; conditions: Vero C1008
[11] = target: T4, Rac GTPase-activating protein 1 (Homo sapiens, UniProt Q9H0H5); experiment: blockers of MgcRacGAP-driven Rac1 GTP hydrolysis – biochemical, ADP Hunter fluorescence, primary and confirmatory, confirmation (AID 624330); format: functional
T4 sequence (Q9H0H5 whole entry): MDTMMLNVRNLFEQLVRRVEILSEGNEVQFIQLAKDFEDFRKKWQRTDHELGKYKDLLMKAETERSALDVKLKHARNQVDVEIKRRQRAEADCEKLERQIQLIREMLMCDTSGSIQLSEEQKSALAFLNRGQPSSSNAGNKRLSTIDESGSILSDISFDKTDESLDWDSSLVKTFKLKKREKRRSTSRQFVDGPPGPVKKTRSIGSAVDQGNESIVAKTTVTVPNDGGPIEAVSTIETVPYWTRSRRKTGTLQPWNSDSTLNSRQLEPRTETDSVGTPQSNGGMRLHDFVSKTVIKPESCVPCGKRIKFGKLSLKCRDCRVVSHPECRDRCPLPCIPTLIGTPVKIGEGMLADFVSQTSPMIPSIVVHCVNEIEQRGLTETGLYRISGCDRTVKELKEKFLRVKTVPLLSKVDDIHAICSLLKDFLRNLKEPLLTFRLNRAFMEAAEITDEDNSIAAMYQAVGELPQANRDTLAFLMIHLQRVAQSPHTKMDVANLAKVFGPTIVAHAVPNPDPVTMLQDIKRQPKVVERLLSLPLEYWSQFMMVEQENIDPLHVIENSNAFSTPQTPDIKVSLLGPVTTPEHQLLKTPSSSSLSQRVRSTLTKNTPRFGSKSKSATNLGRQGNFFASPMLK

[12] = target: Induced myeloid leukemia cell differentiation protein Mcl-1 (Homo sapiens, UniProt Q07820); format: functional
[13] = target: Cytochrome P450 2C9 (Homo sapiens, UniProt P11712)
[14] = target: T5, Cytochrome P450 1A2 (Homo sapiens, UniProt P05177);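 further: PubChem cytochrome P450 panel assay, CYP1A2 panel member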
T5 sequence (P05177 whole entry): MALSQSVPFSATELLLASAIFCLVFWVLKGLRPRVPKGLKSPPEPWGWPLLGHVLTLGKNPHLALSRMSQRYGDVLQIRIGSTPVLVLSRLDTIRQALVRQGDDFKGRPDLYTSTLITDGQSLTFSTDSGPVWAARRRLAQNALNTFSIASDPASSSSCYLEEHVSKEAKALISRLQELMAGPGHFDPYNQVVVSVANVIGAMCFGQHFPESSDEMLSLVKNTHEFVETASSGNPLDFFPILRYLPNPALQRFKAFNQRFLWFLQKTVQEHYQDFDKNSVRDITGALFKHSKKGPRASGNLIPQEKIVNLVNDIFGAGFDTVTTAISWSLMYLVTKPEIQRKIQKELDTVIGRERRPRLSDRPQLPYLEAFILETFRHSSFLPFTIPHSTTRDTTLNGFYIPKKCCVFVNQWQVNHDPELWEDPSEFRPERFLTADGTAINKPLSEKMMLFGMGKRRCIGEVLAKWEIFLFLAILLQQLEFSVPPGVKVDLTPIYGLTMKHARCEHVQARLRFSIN

[15] = system: Streptococcus; experiment: GAS UMAA2166 growth inhibition – luminescence, BacTiterGlo, counter-screen for streptokinase expression inhibitor project, dose response (AID 1915); format: functional, organism-based;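 further: potency for reduction of bacterial viability or growth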
[16] = target: T6, Streptokinase A (Streptococcus pyogenes serotype M1, UniProt P10520); experiment: viability-normalized secreted streptokinase activity reduction – plasminogen activation absorbance, OD405, dose response (AID 1914); format: functional, Streptococcus pyogenes M1 GAS;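 further: secreted streptokinase activity via plasminogen activation per viability signal from cell pellet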
T6 sequence (P10520 whole entry): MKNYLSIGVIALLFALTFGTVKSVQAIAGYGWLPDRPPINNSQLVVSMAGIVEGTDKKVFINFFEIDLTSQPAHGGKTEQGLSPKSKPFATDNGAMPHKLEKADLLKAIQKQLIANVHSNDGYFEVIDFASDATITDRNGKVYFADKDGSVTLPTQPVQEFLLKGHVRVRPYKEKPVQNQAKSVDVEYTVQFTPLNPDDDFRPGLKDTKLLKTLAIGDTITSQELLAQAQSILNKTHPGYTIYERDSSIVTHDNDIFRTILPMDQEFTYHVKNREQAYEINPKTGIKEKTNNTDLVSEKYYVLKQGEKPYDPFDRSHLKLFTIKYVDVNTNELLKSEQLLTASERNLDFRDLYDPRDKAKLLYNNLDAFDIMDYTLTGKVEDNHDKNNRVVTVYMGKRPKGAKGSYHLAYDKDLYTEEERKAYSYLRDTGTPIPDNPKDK

[17] = THP-1 cell cytotoxicity, dose response, cytotoxicity control for non-replicating M. tuberculosis project (AID 489025); format: functional
[18] = system: Streptococcus sp. 'group A'; experiment: Streptococcus pyogenes SK(-)GAS viability under kanamycin – luminescence, BacTiterGlo, confirmation, counter-screen for streptokinase expression inhibitor project, dose response (AID 1900); format: functional, organism-based
[19] = cells
[20] = system: Vero; experiment: cells; format: functional, cell-based; conditions: Chlorocebus sabaeus
[21] = viability of uninfected HEp-2 cells – cell-based, HTS, cytotoxicity control for RSV inhibitor project, dose response (AID 2410); format: functional; conditions: human respiratory syncytial virus
[22] = target: T7, Microphthalmia-associated transcription factor (Homo sapiens, UniProt O75030); experiment: reducers of TRPM1 reporter luminescence, concentration series – cell-based, SK-MEL-5, cherry-picked, set 3, MITF inhibitor project, dose response (AID 493073); format: functional;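 further: SK-MEL-5 melanoma cells with luciferase driven by the MITF target TRPM1 promoter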
T7 sequence (O75030 whole entry): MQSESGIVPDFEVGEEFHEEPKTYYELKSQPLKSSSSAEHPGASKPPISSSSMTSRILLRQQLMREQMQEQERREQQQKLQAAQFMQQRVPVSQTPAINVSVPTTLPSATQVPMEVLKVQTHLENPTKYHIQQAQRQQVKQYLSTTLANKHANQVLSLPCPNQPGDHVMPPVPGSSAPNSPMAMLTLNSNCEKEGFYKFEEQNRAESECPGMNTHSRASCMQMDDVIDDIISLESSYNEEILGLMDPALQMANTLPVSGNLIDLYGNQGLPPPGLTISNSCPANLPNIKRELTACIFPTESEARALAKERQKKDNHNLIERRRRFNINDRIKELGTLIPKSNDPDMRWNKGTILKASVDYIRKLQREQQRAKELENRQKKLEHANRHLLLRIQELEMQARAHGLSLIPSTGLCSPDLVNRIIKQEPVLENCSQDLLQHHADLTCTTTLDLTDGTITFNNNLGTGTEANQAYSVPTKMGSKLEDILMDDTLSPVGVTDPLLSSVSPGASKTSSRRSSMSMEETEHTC

[23] = system: Vero; experiment: cells; format: functional; conditions: Chlorocebus sabaeus

Chain of Cytochrome P450 2D6 (P10635 whole entry): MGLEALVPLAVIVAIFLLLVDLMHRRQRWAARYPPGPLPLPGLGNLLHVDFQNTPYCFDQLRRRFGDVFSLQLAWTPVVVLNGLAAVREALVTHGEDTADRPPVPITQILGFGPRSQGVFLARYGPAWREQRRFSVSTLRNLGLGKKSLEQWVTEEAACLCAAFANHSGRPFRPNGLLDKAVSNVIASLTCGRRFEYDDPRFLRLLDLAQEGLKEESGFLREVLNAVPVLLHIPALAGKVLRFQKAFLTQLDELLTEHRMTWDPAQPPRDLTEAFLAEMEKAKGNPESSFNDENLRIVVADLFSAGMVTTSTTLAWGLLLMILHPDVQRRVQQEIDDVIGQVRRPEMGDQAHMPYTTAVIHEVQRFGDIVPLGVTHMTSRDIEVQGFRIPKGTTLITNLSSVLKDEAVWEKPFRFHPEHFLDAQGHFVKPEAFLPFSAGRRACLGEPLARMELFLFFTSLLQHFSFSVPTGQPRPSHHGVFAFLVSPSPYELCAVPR
T1 sequence (Q9UBE0 whole entry): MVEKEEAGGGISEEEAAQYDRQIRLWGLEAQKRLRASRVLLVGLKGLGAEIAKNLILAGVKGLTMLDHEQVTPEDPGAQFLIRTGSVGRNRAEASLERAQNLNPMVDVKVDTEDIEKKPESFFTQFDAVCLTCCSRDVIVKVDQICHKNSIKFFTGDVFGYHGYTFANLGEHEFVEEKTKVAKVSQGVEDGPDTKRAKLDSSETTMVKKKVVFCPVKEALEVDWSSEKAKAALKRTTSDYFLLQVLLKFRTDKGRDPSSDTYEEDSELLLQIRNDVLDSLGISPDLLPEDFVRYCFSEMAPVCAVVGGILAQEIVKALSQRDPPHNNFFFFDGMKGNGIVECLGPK
T1 sequence (Q9UBT2 whole entry): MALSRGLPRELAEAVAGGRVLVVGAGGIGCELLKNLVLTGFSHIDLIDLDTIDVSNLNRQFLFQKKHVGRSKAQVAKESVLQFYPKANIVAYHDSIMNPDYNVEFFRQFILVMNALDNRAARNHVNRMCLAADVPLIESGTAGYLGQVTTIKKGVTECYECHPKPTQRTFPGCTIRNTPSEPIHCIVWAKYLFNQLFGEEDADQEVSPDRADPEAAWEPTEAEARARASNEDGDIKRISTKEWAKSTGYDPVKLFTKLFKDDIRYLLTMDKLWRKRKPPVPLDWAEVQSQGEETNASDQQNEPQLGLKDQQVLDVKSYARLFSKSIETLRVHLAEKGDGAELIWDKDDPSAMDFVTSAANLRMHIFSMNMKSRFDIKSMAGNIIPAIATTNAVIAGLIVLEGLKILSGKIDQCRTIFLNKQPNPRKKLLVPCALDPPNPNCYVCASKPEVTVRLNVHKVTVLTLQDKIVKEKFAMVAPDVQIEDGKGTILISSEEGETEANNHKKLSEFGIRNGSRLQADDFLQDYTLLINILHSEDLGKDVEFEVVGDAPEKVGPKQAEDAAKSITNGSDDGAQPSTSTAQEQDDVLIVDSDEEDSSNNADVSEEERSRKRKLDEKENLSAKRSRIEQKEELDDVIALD
Chain of Cytochrome P450 2C19 (P33261 whole entry): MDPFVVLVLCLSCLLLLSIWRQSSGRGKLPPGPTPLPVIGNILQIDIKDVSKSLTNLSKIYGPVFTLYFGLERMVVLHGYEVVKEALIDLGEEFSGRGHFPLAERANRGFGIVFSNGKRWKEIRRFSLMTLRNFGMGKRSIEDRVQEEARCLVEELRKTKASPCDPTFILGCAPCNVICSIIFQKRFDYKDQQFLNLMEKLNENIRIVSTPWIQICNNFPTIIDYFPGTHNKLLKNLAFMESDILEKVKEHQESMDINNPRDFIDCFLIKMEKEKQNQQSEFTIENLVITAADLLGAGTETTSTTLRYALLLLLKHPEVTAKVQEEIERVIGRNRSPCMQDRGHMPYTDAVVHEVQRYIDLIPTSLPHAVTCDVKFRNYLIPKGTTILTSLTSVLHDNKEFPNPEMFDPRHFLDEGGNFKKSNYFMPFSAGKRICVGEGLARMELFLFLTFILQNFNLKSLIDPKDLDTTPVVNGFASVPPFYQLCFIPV
Chain of Alkaline phosphatase, placental type (P05187 whole entry): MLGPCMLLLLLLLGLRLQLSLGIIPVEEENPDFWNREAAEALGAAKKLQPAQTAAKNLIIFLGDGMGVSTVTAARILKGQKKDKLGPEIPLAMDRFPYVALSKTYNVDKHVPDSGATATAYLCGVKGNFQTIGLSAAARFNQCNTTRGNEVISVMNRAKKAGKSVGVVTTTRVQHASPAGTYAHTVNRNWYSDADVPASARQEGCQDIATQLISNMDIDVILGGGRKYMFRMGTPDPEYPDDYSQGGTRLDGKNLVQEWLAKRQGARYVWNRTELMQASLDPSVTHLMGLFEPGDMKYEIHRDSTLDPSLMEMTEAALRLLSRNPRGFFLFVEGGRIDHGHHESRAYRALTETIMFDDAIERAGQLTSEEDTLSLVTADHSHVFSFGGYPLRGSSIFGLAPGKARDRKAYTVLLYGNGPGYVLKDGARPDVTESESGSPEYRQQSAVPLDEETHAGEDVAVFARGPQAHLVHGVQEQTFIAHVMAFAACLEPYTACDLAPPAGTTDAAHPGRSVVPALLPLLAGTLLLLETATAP
Chain of Induced myeloid leukemia cell differentiation protein Mcl-1 (Q07820 whole entry): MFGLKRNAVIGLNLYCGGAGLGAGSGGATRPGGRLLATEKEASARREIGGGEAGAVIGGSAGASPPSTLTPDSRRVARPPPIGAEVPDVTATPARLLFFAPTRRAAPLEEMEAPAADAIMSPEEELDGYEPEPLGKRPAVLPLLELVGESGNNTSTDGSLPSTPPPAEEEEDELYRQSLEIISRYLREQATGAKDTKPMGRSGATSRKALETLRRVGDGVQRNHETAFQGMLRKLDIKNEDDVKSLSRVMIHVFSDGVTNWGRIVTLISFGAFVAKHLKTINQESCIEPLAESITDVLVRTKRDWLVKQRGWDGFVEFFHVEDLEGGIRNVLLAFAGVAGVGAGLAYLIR
Chain of Cytochrome P450 2C9 (P11712 whole entry): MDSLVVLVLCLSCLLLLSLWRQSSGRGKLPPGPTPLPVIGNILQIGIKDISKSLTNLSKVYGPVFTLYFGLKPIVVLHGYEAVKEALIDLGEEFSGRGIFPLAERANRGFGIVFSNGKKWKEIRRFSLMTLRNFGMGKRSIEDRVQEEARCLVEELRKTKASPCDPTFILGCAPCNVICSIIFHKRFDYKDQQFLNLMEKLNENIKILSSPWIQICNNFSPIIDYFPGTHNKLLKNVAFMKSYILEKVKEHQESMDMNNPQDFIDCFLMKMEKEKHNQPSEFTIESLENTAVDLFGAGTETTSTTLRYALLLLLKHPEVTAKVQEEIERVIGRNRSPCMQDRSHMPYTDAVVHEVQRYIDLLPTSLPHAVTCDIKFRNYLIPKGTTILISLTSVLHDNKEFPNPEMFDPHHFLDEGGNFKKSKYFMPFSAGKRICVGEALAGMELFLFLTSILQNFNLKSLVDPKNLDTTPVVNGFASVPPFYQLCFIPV

## O=C(O)c1nn(-c2ccccc2)nc1-c1nn(-c2ccccc2)nc1C(=O)O
[1]
  AC50: inconclusive

## CCNc1nc(N)nc(Oc2ccc(C(=O)OC)cc2)n1
[2]
  AC50: 245 µM (active)

## C[C@@H](c1ccccc1)N1C(=O)[C@H]2[C@@H]3[C@H](O)C=CC(=O)[C@H]3CC[C@H]2C1=O
[1]
  AC50: inconclusive
[3]
  AC50: inconclusive

## COc1ccc(C(=O)Nc2ccc(-c3nnn(CC(=O)N4CCN(C(=O)c5ccco5)CC4)n3)cc2)cc1
[4]
  IC50: 30 µM (active)
[5]
  IC50: 13 µM (active)

## NC(=O)c1ccc(-n2nnnc2SCC(=O)c2ccc(O)c(O)c2)cc1
[6]
  AC50: > 20 µM (inactive)
[7]
  IC50: 3.48 µM (active)
[8]
  IC50: 1.76 µM (active)

## CCN(CC)c1ccc(NC(=O)CSc2nc(C3CC3)nc3ccccc23)cc1C
[4]
  IC50: 27 µM (active)
[5]
  IC50: 7.43 µM (active)

## COc1cc(NCCC(=O)c2cccs2)c(OC)cc1Cl
[9]
  IC50: 8.46 µM (active)
[10]
  CC50: > 20 µM (active)
[11]
  IC50: 58.1 µM (active)
[12]
  IC50: 4.38 µM (not active)

## Cc1cc(C)nc(Nc2n[nH]c(-c3cccc4ccccc34)n2)n1
[1]
  AC50: inconclusive
[3]; read-out: AC50
  AC50: 17.8 µM (inconclusive)

## COc1ccc(/C=N/C(CO)C(O)c2ccc([N+](=O)[O-])cc2)cc1 (configuration not stated)
[1]
  AC50: inconclusive
[13]
  AC50: 2.51 µM (inconclusive)
[14]
  AC50: 20 µM (inconclusive)

## CCCCCC/C(=N/O)c1ccccn1
[9]
  IC50: 6.74 µM (active)
[15]
  EC50: 40 µM (active)
[16]
  EC50: > 150 µM (not active)
[17]
  CC50: 20.2 µM (active)
[10]
  CC50: 15.2 µM (active)
[18]
  EC50: 7.92 µM (active)

## C/C(N)=C(/C#N)C(=O)COC(=O)c1cc(C)n(-c2ccc(F)cc2)c1C
[19]
  IC50: 29.9 µM (active)
[20]
  IC50: 8.93 µM (active)
[21]
  CC50: 18.8 µM (active)

## CCCN1CCC(NCc2cn(C)nc2-c2ccc(Oc3ccccc3)cc2)CC1
[20]
  IC50: 23.1 µM (active)
[22]
  AC50: 8.35 µM (active)
[23]
  CC50: > 25 µM (active)
